Results published in patent US7166622B2, “Substituted phenylsulfonamide inhibitors of beta amyloid production” (Wyeth, priority 2002, dated 2007).
Like-named read-outs stand apart in the source and are kept apart here.

Tests used:
[1] = test system: beta amyloid production; experiment: Repressor Release Assay (RRA); format: cell-based; details: for fold induction at 3 µg/mL: Conc 3 μg/ml; for fold induction at 10 µg/mL: Conc 10 μg/ml
Method: CHO-K1 cells were cultured in whole DMEM media (DMEM—High Glucose with 10% fetal bovine serum, 1% Non-essential Amino Acids, and 1% Penicillin-Streptomycin) at 37° C. with 5% CO2. Two million cells were plated into 10-cm dishes 24 hrs prior to transfection.
Transient transfections were completed as recommended by Gibco BRL using their Lipofectamine Plus system. First, 6 μg of pRSVO-luc and 6 μg of APP-lacI construct DNA were added to 460 μL Opti-Mem transfection media and incubated with 30 μL Plus reagent for 15 minutes. Then, a lipid mixture of 40 μL Lipofectamine reagent and 460 μL Opti-Mem transfection media was incubated with the DNA-Plus reagent mixture for 15 minutes. During the DNA-lipid incubation, the CHO-K1 cells were washed once and covered in 5.0 mL DMEM media without Penicillin-Streptomycin. The DNA-lipid preparation was then layered onto these cells and incubated at 37° C. overnight.
[…] transfected cells per well (100 μL total volume) were plated into sterile, opaque Packard 96-well Culture-Plates in clear DMEM whole media (DMEM—without phenol red) and incubated at 37° C. with 5% CO2 for 3-5 hours.
Compounds were diluted using two different protocols; one protocol was used for compounds supplied neat (weighed powder in vial) and the other protocol was used for compounds supplied in solution (20 mM in DMSO in 96-well plates). For both protocols, 25 mM Hepes and 25 mM Hepes/1% DMSO were prepared fresh to be used as diluent. The Hepes/DMSO was used as the diluent control on all experimental plates.
The following table depicts the steps for compound dilution (please note that the last step was the addition of compound to cells/media in tissue culture plate).
Because some compounds were present in 96-well format at 20 mM, the following represents the protocol for their dilution (note that an average molecular weight of these compounds was used to calculate these dilutions and as above, the last step was the addition of compound to cells/media in tissue culture plate).
Once the compounds were diluted, they were applied in duplicate on cells in tissue culture plates (prepared above). Cells were incubated with compound at 37° C. with 5% CO2 for an additional 36-48 hours.
Luciferase assays (LucLite reagent, Packard) were performed and were read on a Packard TopCount instrument. Media was removed from each 96-well plate and replaced with 100 μL PBS per well (with Mg^2+ and Ca^2+). An equal volume (100 μL) of the LucLite lysis/substrate buffer was added to each well and the plates were sealed and mixed in the dark on a rotary shaker for 15-30 minutes at room temperature. Luciferase readings were then taken on the TopCount instrument. Measurements were expressed as relative light units (RLU) and are calculated and analyzed in MS Excel as follows: […]

[2] = test system: CHO-K1 cells; experiment: Toxicity in RRA (loss of luciferase signal); details: toxicity = loss of signal (<0.75 fold increase)
Method: The beta amyloid inhibitory activity of the compounds of the present invention was determined using the Repressor Release Assay (RRA).
“Fold Increase” refers to the amount of luciferase activity (measured in relative light units) over diluent control. “SEM” refers to the standard error of the mean for fold increase.

[3] = luciferase activity over diluent control, read-out: APPI Fold Increase
[4] = Conc 20 μg/ml, luciferase activity over diluent control, read-out: APPI Fold Increase
[5] = Conc 20 μg/ml, luciferase activity (RLU) over diluent control, read-out: APPI Fold Increase
[6] = Conc 20 μg/ml, 1=non-toxic, 0=toxic

Compound | fold induction at 10 µg/mL [1, 3] | fold induction at 20 µg/mL [1, 4] | (%)APPI Toxicity ([2]; Conc 10 μg/ml) | (%)APPI Toxicity ([2]; Conc 20 μg/ml) | also measured
CC[C@H](C)[C@@H](CO)NS(=O)(=O)c1cccc(Cl)c1Cl [Example 23, 2,3-dichloro-N-[(1S,2S)-1-(hydroxymethyl)-2-methylbutyl]benzenesulfonamide] | 3.6 | 8.3 | 1 (1=non-toxic) | 1 (1=non-toxic) | fold induction at 3 µg/mL [1, 3]: 1.67; (%)APPI Toxicity ([2]; Conc 3 μg/ml): 1 (1=non-toxic)
C=CC(O)[C@@H](NS(=O)(=O)c1ccc(Br)cc1)[C@@H](C)CC (stereo partly drawn) [Example 151, 4-bromo-N-{(1S)-2-hydroxy-1-[(1S)-1-methylpropyl]-3-butenyl}benzenesulfonamide] | 2.9 |  | 1 (1=non-toxic) |  | 
CC[C@H](C)[C@H](NS(=O)(=O)c1ccc(F)cc1)C(O)(CC(C)C)CC(C)C [Example 240, 4-fluoro-N-{(1S)-2-hydroxy-2-isobutyl-4-methyl-1-[(1S)-1-methylpropyl]pentyl}benzenesulfonamide] | 3.82 |  | 1 (1=non-toxic) |  | 
CCCCC(CO)NS(=O)(=O)c1ccc(Br)cc1 (stereo not shown) [Example 99, 4-bromo-N-[1-(hydroxymethyl)pentyl]benzenesulfonamide] |  | 1.7 |  | 1 (1=non-toxic) | 
CC[C@H](C)[C@H](NS(=O)(=O)c1ccc(F)cc1)C(O)CCC1OCCCO1 (stereo partly drawn) [Example 140, N-{(1S)-4-(1,3-dioxan-2-yl)-2-hydroxy-1-[(1S)-1-methylpropyl]butyl}-4-fluorobenzenesulfonamide] | 1.52 |  | 1 (1=non-toxic) |  | 
CC[C@H](CC(C)C)[C@@H](CO)NS(=O)(=O)c1ccc(Br)cc1 [Example 73, 4-bromo-N-[(1S,2R)-2-ethyl-1-(hydroxymethyl)-4-methylpentyl]benzenesulfonamide] |  |  |  |  | fold induction at 20 µg/mL [1, 5]: 5.4; (%)APPI Toxicity [2, 6]: 1 (1=non-toxic)
2-fluoro-N-[(1S)-1-(hydroxy 1-methylethyl]benzenesulfonamide [Example 117] |  |  |  | 1 (1=non-toxic) | APPI Fold Increase ([1]; Conc 20 μg/ml, luciferase activity over diluent control): 1.5 fold; APPI % of Example #98 ([1]; Conc 20 μg/ml, relative to Example 98): 31%
CCCCCC[C@@H](C)[C@@H](CO)NS(=O)(=O)c1ccc(Cl)cc1 [Example 50, 4-chloro-N-[(1S,2R)-1-(hydroxymethyl)-2-methyloctyl]benzenesulfonamide] |  | 2.5 |  | 1 (1=non-toxic) | 
CC[C@@H](c1ccco1)[C@@H](CO)NS(=O)(=O)c1ccc(Cl)cc1 [Example 66, 4-chloro -N-[(1S,2R)-2-(2-furyl)-1-(hydroxymethyl)butyl]benzenesulfonamide] |  |  |  |  | fold induction at 20 µg/mL [1, 5]: 5.5; (%)APPI Toxicity [2, 6]: 1 (1=non-toxic)
CC[C@H](C)[C@H](NS(=O)(=O)c1ccc(Br)cc1)C(O)c1ccc(Cl)cc1 (stereo partly drawn) [Example 155, 4-bromo-N-{(1S,2S)-1-[(4-chlorophenyl)(hydroxy)methyl]-2-methylbutyl}benzenesulfonamide] | 4.37 |  | 1 (1=non-toxic) |  | 
O=S(=O)(N[C@H](CO)CC1CCCCC1)c1ccc(Cl)cc1 [Example 95, 4-chloro-N-[(1S)-2-cyclohexyl-1-(hydroxymethyl)ethyl]benzenesulfonamide] |  | 1.6 |  | 1 (1=non-toxic) | 
CC[C@H](C)[C@H](NS(=O)(=O)c1cccc(Cl)c1)C(O)CC(C)C (stereo partly drawn) [Example 192, 3-chloro-N-{(1S)-2-hydroxy-4-methyl-1-[(1S)-1-methylpropyl]pentyl}benzenesulfonamide] | 2.21 |  | 1 (1=non-toxic) |  | 
CC[C@@H](C)[C@@H](CO)NS(=O)(=O)c1ccc(Br)cc1 [Example 36, 4-bromo-N-[(1S,2R)-1-(hydroxymethyl)-2-methylbutyl]benzenesulfonamide] | 3.33 | 6.4 | 1 (1=non-toxic) | 1 (1=non-toxic) | fold induction at 1 µg/mL ([1]; Conc 1 μg/ml, luciferase activity over diluent control, read-out: APPI Fold Increase): 1.6; fold induction at 3 µg/mL [1, 3]: 2.05; (%)APPI Toxicity ([2]; Conc 1 μg/ml): 1 (1=non-toxic); (%)APPI Toxicity ([2]; Conc 3 μg/ml): 1 (1=non-toxic)
CC[C@H](C)[C@@H](CO)NS(=O)(=O)c1ccc(Cl)cc1 [Example 91, 4-Chloro-N-[(1S,2S)-1-(hydroxymethyl)-2-methylbutyl]benzenesulfonamide] | 2.38 |  | 1 (1=non-toxic) | 1 (1=non-toxic) | fold induction at 3 µg/mL [1, 3]: 1.71; (%)APPI Toxicity ([2]; Conc 3 μg/ml): 1 (1=non-toxic)
CCCCCCC(O)[C@@H](NS(=O)(=O)c1cccc(Cl)c1)[C@@H](C)CC (stereo partly drawn) [Example 187, 3-chloro-N-{(1S)-2-hydroxy-1-[(1S)-1-methylpropyl]octyl}benzenesulfonamide] | 9.02 |  | 1 (1=non-toxic) |  | 
CCC[C@H](C)[C@@H](CO)NS(=O)(=O)c1ccc(Cl)cc1 [Example 54, 4-chloro-N-[(1S,2S)-1-(hydroxymethyl)-2-methylpentyl]benzenesulfonamide] |  |  |  |  | fold induction at 20 µg/mL [1, 5]: 5; (%)APPI Toxicity [2, 6]: 1 (1=non-toxic)
CC[C@H](C)[C@@H](CO)N(Cc1ccc(Cl)cc1)S(=O)(=O)c1ccc(Cl)cc1 [Example 43, 4-chloro-N-(4-chlorobenzyl)-N-[(1S,2S)-1-(hydroxymethyl)-2-methylbutyl]benzenesulfonamide] |  | 5.1 |  | 1 (1=non-toxic) | 
CC[C@H](C)[C@@H](CO)NS(=O)(=O)c1cc(Cl)c(Cl)cc1Cl [Example 25, 2,4,5-trichloro-N-[(1S,2S)-1-(hydroxymethyl)-2-methylbutyl]benzenesulfonamide] |  | 1.8 |  | 1 (1=non-toxic) | 
CCCCC[C@H](C)[C@@H](CO)NS(=O)(=O)c1ccc(Cl)cc1 [Example 60, 4-chloro-N-[(1S,2S)-1-(hydroxymethyl)-2-methylheptyl]benzenesulfonamide] |  |  |  |  | fold induction at 20 µg/mL [1, 5]: 4.6; (%)APPI Toxicity [2, 6]: 1 (1=non-toxic)
C=CC(O)[C@@H](NS(=O)(=O)c1cccc(Cl)c1)[C@@H](C)CC (stereo partly drawn) [Example 193, 3-chloro-N-{(1 S)-2-hydroxy-1-[(1S)-1-methylpropyl]-3-butenyl}benzenesulfonamide] | 1.78 |  | 1 (1=non-toxic) |  | 
CC[C@H](C)[C@H](NS(=O)(=O)c1ccc(Br)cc1)C(C)(C)O [Example 211] | 2.09 |  | 1 (1=non-toxic) |  | 
CC[C@H](C)[C@H](NS(=O)(=O)c1ccc(Cl)cc1)C(O)C(C)C (stereo partly drawn) [Example 170, 4-chloro-N-{(1S)-2-hydroxy-3-methyl-1-[(1S)-1-methylpropyl]butyl}benzenesulfonamide] | 1.92 |  | 1 (1=non-toxic) |  | 
CC(C)C[C@@H](CO)NS(=O)(=O)c1ccc(Cl)cc1 [Example 92, 4-chloro-N-[(1S)-1-(hydroxymethyl)-3-methylbutyl]benzenesulfonamide] |  | 1.7 |  | 1 (1=non-toxic) | 
O=S(=O)(N[C@H](CO)CC1CCCCC1)c1cccc(Cl)c1 [Example 106, 3-chloro-N-[(1S)-2-cyclohexyl-1-(hydroxymethyl)ethyl]benzenesulfonamide] |  | 1.6 |  | 1 (1=non-toxic) | 
CCCCC(O)(CCCC)[C@@H](NS(=O)(=O)c1ccc(Cl)cc1)[C@@H](C)CC [Example 225, N-{(1S)-2-butyl-2-hydroxy-1-[(1S)-1-methylpropyl]hexyl}-4-chlorobenzenesulfonamide] | 6.82 |  | 1 (1=non-toxic) |  | 
